Reference: the supplement of paper PMC10307832

What was measured:
Assay in all cases: relative viability (nuclei count vs DMSO), 5 days (fraction); higher = more cells survive
Doramapimod + Linsitinib = compound: Cc1ccc(-n2nc(C(C)(C)C)cc2NC(=O)Nc2ccc(OCCN3CCOCC3)c3ccccc23)cc1 [Doramapimod] + C[C@]1(O)C[C@@H](c2nc(-c3ccc4ccc(-c5ccccc5)nc4c3)c3c(N)nccn32)C1 [Linsitinib] (partner 1 µM)
How it was run: (§1)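 Relative viability equals treated-well nuclei counts divided by vehicle-well nuclei counts. Counts came from 4× images of lung cancer cell lines grown in 1536-well plates for 5 days after pin-tool dosing on the day after seeding. Dosing used one drug alone or a fixed anchor-drug dose plus five library-drug doses (not always all listed) in √10 steps, and values are medians of duplicate plates.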

RAF265 + Luminespib = compound: Cn1c(Nc2ccc(C(F)(F)F)cc2)nc2cc(Oc3ccnc(-c4ncc(C(F)(F)F)[nH]4)c3)ccc21 [RAF265] + CCNC(=O)c1noc(-c2cc(C(C)C)c(O)cc2O)c1-c1ccc(CN2CCOCC2)cc1 [Luminespib] (partner 0.01 µM)
How it was run: as §1

RAF265 + OSI-027 = compound: Cn1c(Nc2ccc(C(F)(F)F)cc2)nc2cc(Oc3ccnc(-c4ncc(C(F)(F)F)[nH]4)c3)ccc21 [RAF265] + COc1cccc2cc(-c3nc([C@H]4CC[C@H](C(=O)O)CC4)n4ncnc(N)c34)[nH]c12 [OSI-027] (partner 0.5 µM)
How it was run: as §1

RAF265 + Pemetrexed = compound: Cn1c(Nc2ccc(C(F)(F)F)cc2)nc2cc(Oc3ccnc(-c4ncc(C(F)(F)F)[nH]4)c3)ccc21 [RAF265] + Nc1nc2[nH]cc(CCc3ccc(C(=O)N[C@@H](CCC(=O)O)C(=O)O)cc3)c2c(=O)[nH]1 [Pemetrexed] (partner 0.2 µM)
How it was run: as §1

Cell Line | relative viability (Doramapimod + Linsitinib; first compound 0.02 µM) | relative viability (Doramapimod + Linsitinib; first compound 0.06325 µM) | relative viability (Doramapimod + Linsitinib; first compound 0.2 µM) | relative viability (Doramapimod + Linsitinib; first compound 0.6325 µM) | relative viability (Doramapimod + Linsitinib; first compound 2 µM) | relative viability (RAF265 + Luminespib; first compound 0.01 µM) | relative viability (RAF265 + Luminespib; first compound 0.03162 µM) | relative viability (RAF265 + Luminespib; first compound 0.1 µM) | relative viability (RAF265 + Luminespib; first compound 0.3162 µM) | relative viability (RAF265 + Luminespib; first compound 1 µM) | relative viability (RAF265 + OSI-027; first compound 0.01 µM) | relative viability (RAF265 + OSI-027; first compound 0.03162 µM) | relative viability (RAF265 + OSI-027; first compound 0.1 µM) | relative viability (RAF265 + OSI-027; first compound 0.3162 µM) | relative viability (RAF265 + OSI-027; first compound 1 µM) | relative viability (RAF265 + Pemetrexed; first compound 0.01 µM) | relative viability (RAF265 + Pemetrexed; first compound 0.03162 µM) | relative viability (RAF265 + Pemetrexed; first compound 0.1 µM) | relative viability (RAF265 + Pemetrexed; first compound 0.3162 µM) | relative viability (RAF265 + Pemetrexed; first compound 1 µM)
NCI-H23 | 0.648 | 0.528 | 0.511 | 0.664 | 0.565 | 0.22 | 0.225 | 0.221 | 0.212 | 0.221 | 0.734 | 0.46 | 0.412 | 0.318 | 0.221 | 0.633 | 0.573 | 0.53 | 0.351 | 0.366
NCI-H322M | 0.851 | 0.834 | 0.909 | 1.01 | 0.874 | 0.868 | 0.722 | 0.545 | 0.305 | 0.304 | 0.589 | 0.519 | 0.41 | 0.358 | 0.186 | 0.587 | 0.605 | 0.472 | 0.357 | 0.335
NCI-H358 | 0.68 | 0.598 | 0.611 | 0.722 | 0.667 | 0.28 | 0.21 | 0.231 | 0.166 | 0.126 | 0.864 | 0.617 | 0.305 | 0.194 | 0.18 | 0.159 | 0.165 | 0.151 | 0.149 | 0.147
NCI-H441 | 0.528 | 0.512 | 0.541 | 0.553 | 0.442 | 0.368 | 0.29 | 0.321 | 0.263 | 0.327 | 0.612 | 0.591 | 0.454 | 0.346 | 0.351 | 0.267 | 0.251 | 0.258 | 0.223 | 0.224
NCI-H460 | 0.71 | 0.736 | 0.733 | 0.875 | 0.641 | 0.0219 | 0.0359 | 0.0291 | 0.0265 | 0.0248 | 0.696 | 0.627 | 0.416 | 0.222 | 0.0945 | 0.0601 | 0.0679 | 0.0652 | 0.0628 | 0.0612
NCI-H520 | 0.937 | 1.11 | 0.838 | 0.963 | 0.897 | 0.211 | 0.232 | 0.235 | 0.208 | 0.215 | 0.248 | 0.255 | 0.287 | 0.299 | 0.224 | 0.637 | 0.536 | 0.629 | 0.507 | 0.36
NCI-H596 | 0.99 | 1.03 | 1.02 | 1.05 | 1 | 1.11 | 1.06 | 0.962 | 1.01 | 0.625 | 0.982 | 0.751 | 0.784 | 0.563 | 0.554 | 0.565 | 0.504 | 0.474 | 0.538 | 0.448
NCI-H647 | 1.22 | 1.24 | 1.15 | 1.03 | 1.04 | 0.256 | 0.103 | 0.171 | 0.153 | 0.0987 | 0.598 | 0.618 | 0.417 | 0.246 | 0.213 | 0.156 | 0.161 | 0.174 | 0.142 | 0.178
NCI-H650 | 0.93 | 1.03 | 1.08 | 0.923 | 0.785 | 0.803 | 0.785 | 0.834 | 0.497 | 0.339 | 0.52 | 0.468 | 0.491 | 0.411 | 0.279 | 0.96 | 0.76 | 0.734 | 0.573 | 0.505
NCI-H661 | 0.634 | 0.568 | 0.555 | 0.741 | 0.599 | 0.973 | 0.694 | 0.658 | 0.486 | 0.412 | 0.742 | 0.394 | 0.44 | 0.333 | 0.291 | 0.941 | 0.873 | 0.835 | 0.701 | 0.615
NCI-H838 | 0.9 | 1.04 | 1.02 | 1.1 | 0.994 | 0.284 | 0.226 | 0.344 | 0.309 | 0.288 | 0.403 | 0.491 | 0.455 | 0.341 | 0.304 | 0.269 | 0.269 | 0.265 | 0.299 | 0.237
NCI-H1355 | 0.804 | 0.819 | 0.824 | 0.908 | 0.779 | 0.705 | 0.726 | 0.747 | 0.411 | 0.246 | 0.461 | 0.314 | 0.3 | 0.251 | 0.217 | 1.05 | 1.02 | 0.972 | 0.96 | 0.714
NCI-H1395 | 1.11 | 1.04 | 1.17 | 1.13 | 0.997 | 0.633 | 0.726 | 0.7 | 0.658 | 0.509 | 0.72 | 0.571 | 0.638 | 0.537 | 0.487 | 0.893 | 0.878 | 0.824 | 0.65 | 0.683
NCI-H1437 | 1.03 | 0.982 | 0.968 | 1.17 | 0.947 | 1.02 | 1.07 | 1.08 | 1.23 | 1.11 | 0.863 | 0.918 | 0.82 | 0.982 | 0.611 | 0.346 | 0.296 | 0.326 | 0.285 | 0.278
NCI-H1563 | 1.17 | 1.23 | 1.25 | 1.25 | 1.2 | 0.56 | 0.511 | 0.589 | 0.529 | 0.485 | 0.769 | 0.772 | 0.738 | 0.706 | 0.739 | 0.943 | 0.886 | 0.77 | 0.779 | 0.699
